The record followed here is patent publication EP0366632A1, “Alternative energy substrates” (priority 1988, dated 1990).

Common to all, as to type: cell-based
The test system of test [1] is Escherichia coli ATCC 8739. The test can be described thus: Microorganism count in 2% and 0.2% ester emulsions (Example 14). The conditions noted are these: for number of microorganisms: after 1-5 minutes, +37°C, starting concentration about 10⁴. On the procedure: The emulsions contained egg-yolk phospholipid 1,2% and sterile water, in addition to ester. The emulsions were prepared aseptically, by emulsifying sterile-filtered ester with a steriled dispersion of egg-yolk phospholipids.
Aliquots of these emulsions were diluted with phosphate buffer (0.01 M, pH=7.0) in the proportions of 1 and 10 and 1 and 100 in respective emulsions. Escherichia coli ATCC 8739 was added to the solutions. The solutions were then incubated at +37°C for 20 hours. The microorganism count was carried out after 1-5 minutes, 2 and 20 hours, in the manner described in microbiological literature. Parallel with the above tests, a check was carried out on phospholipide solution 1,2% and TSB (Tryptone soya broth) with additions of Escherichia coli ATCC 8739. The latter substrate was tested to ascertain whether or not the control microorganisms were viable. […] The starting concentration was about 10⁴. In the samples containing 4-methyl-3-oxo-pentanoic acid ethyl ester having the concentrations of 2% and 0.2%, the number of microorganisms present per ml after 1-5 minutes was 0 and 10⁴ respectively. After 2 hours, the microorganism count was 0 and 10 respectively, and after 20 hours 0 and 10 respectively. In the samples containing 5-methyl-3-oxo-hexanoic acid ethyl ester with the concentrations of 2% and 0.2%, the microorganism count per ml was 10 and 10 respectively after 1-5 minutes, 0 and 0 respectively after 2 hours, and 0 and 0 respectively after 20 hours.

In test [2] the test system is Staphylococcus aureus ATCC 6535. The test can be described thus: Microorganism count in 2% and 0.2% ester emulsions (Example 13). Here is the method:
Both of the emulsions included egg-yolk phospholipide 1,2% and sterile water, in addition to ester. The emulsions were prepared aseptically, by emulsifying sterile-filtered ester with a sterilized dispersion of egg-yolk phospholipids.
Aliquots of these emulsions were diluted with phosphate buffer (0.01 M, pH=7.0), in the proportions of 1 and 100 in respective emulsions. Staphylococcus aureus ATCC 6535 was then added to the emulsions. The samples were then incubated at +37°C for 20 hours. The microorganism count was carried out after 1-5 minutes, 2 and 20 hours, in the manner described in microbiological literature. Parallel with the above experiments, a check was made on the phospholipid solution 1,2% and TSB (Tryptone soya broth), by adding Staphylococcus aureus ATCC 6535. The latter substrate was tested to ascertain whether the controlled microorganisms were viable. […] The starting concentration was about 5x10³. […] After 2 hours, the number of microorganisms was 0 and 10 respectively, and after 20 hours 0 and 0 respectively. In the samples containing 5-methyl-3-oxo-hexanoic acid ethyl ester with concentrations of 2% and 0.2%, the number of microorganisms per ml present after 1-5 minutes was 10⁴, after 2 hours 0 and 100 respectively, and after 20 hours 0 and 0 respec tively.

In test [3] the test system is Escherichia coli ATCC 8739. Kind of test: Microorganism count in ester emulsions diluted with phosphate buffer, albumin solution or TSB (Example 16). Here is the method: The emulsions contained egg-yolk phospholipid 1,2% and sterile water in addition to ester. The emulsions were prepared aseptically, by emulsifying sterile-filtered ester with a sterilized dispersion of egg-yolk phospholipids.
Aliquots of these emulsions were diluted at a ratio of 1 to 10 with phosphate buffer (0.01 M, pH=7.0), seruma albumin solution 20% and Tryptone soya broth (TSB) respectively. Escherichia coli ATCC 8739 were added to the emulsions. The emulsions were then incubated for 20 hours at +37°C. The microorganism count was carried out after 1-5 minutes, 2 hours and 20 hours, in the manner described in microbiological literature. Parallel with the above tests, there was made a control of phosphate buffer and TSB with additions of Escherichia coli ATCC 8739. The latter substrate was tested to ascertain whether or not the microorganisms were viable. […] The starting concentration was about 10⁴. In the samples containing 4-methyl-3-oxo-pentanoic acid ethyl ester, the combination with phosphate buffer was 0 after 5 minutes, 0 after 2 hours and 0 after 20 hours. In the combination with 20% albumin solution, the microorganism count was 0 after 5 minutes, no count was taken after 2 hours, and 0 after 20 hours. […], the count in the combination with TSB was 0, no count was taken after 2 hours, and 0 after 20 hours.
In the samples containing 5-methyl-3-oxo-hexanoic acid ethyl ester, the count in the combination with phosphate buffer was 10 after 5 minutes, 0 after 2 hours, and 0 after 20 hours. The combination with 20% albumin solution was 10² after 5 minutes, no count was taken after 2 hours, and 0 after 20 hours. In the combination with TSB, the count was 10 after 5 minutes, no count was taken after 2 hours, and 0 after 20 hours. […] All microorganisms were eliminated within 20 hours by both esters at the same low concentration.

Setting [4] is: 20% emulsion diluted 1 to 10 with phosphate buffer, after 5 minutes, starting concentration about 10⁴.
Where [5] appears, read: diluted 1 to 10 with 20% albumin solution, after 20 hours.
Where [6] appears, read: diluted 1 to 10 with TSB, after 20 hours.
Where [7] appears, read: diluted 1 to 10 with phosphate buffer, after 2 hours.
Setting [8] is: diluted 1 to 10 with phosphate buffer, after 20 hours.

For the compound `CCOC(=O)CC(=O)CC(C)C` [5-methyl-3-oxo-hexanoic acid ethyl ester], the number of microorganisms stood at 10 per ml in test [1] (0.2%); 10 per ml in test [1] (2%); 100 per ml in test [2] (0.2%, after 2 hours); 0 per ml in test [2] (0.2%, after 20 hours); 0 per ml in test [2] (2%, after 2 hours); 0 per ml in test [2] (2%, after 20 hours). Besides, the microorganism count is on record as 0 per ml in test [1] (0.2%, after 2 hours); 0 per ml in test [1] (0.2%, after 20 hours); 0 per ml in test [1] (2%, after 2 hours); 0 per ml in test [1] (2%, after 20 hours); 10 in test [3] (setting [4]); 0 in test [3] (setting [5]). Moreover, the microorganism count was determined as 10 in test [3] (diluted 1 to 10 with TSB, after 5 minutes); 0 in test [3] (setting [6]); 0 in test [3] (setting [7]); 0 in test [3] (setting [8]).
As to `CCOC(=O)CC(=O)C(C)C` [4-methyl-3-oxo-pentanoic acid ethyl ester], the microorganism count in test [1] (0.2%, after 2 hours) worked out at 10 per ml; in test [1] (0.2%, after 20 hours) it was 10 per ml; in test [1] (2%, after 2 hours), 0 per ml; in test [1] (2%, after 20 hours), 0 per ml; in test [3] (setting [4]) it was 0; in test [3] (diluted 1 to 10 with 20% albumin solution, after 5 minutes), 0. In addition, the microorganism count worked out at 0 in test [3] (setting [5]); 0 in test [3] (diluted 1 to 10 with TSB, after 4 hours); 0 in test [3] (setting [6]); 0 in test [3] (setting [7]); 0 in test [3] (setting [8]). Further, the number of microorganisms in test [1] (2%) is 0 per ml; in test [2] (0.2%, after 2 hours) it was 10 per ml; in test [2] (0.2%, after 20 hours), 0 per ml; in test [2] (2%, after 1-5 minutes, +37°C, starting concentration about 5x10³), 100 per ml; in test [2] (2%, after 2 hours), 0 per ml; in test [2] (2%, after 20 hours), 0 per ml.
